Assay [1] addresses KRAS G12D (Homo sapiens, UniProt P01116, G12D). Kind of assay: KRAS G12D GDP-GTP exchange assay (bodipy-GDP for GppNHp, with SOS1). In kind it is biochemical. As to conditions: 2.5 nM bodipy loaded KRAS G12D, 4 hours after GppNHp-SOS1; read-out: G12D_exchange (KRAS_G12D exchange assay IC50). How it is done: (§1) The inhibitor potency of the exemplified compounds was determined in a fluorescence based guanine nucleotide exchange assay, which measures the exchange of bodipy-GDP (fluorescently labeled GDP) for GppNHp (Non-hydrolyzable GTP analog) to generate the active state of KRAS in the presence of SOS1 (guanine nucleotide exchange factor). Inhibitors were serially diluted in DMSO and a volume of 0.1 μL was transferred to the wells of a black low volume 384-well plate. 5 μL/well volume of bodipy-loaded KRAS G12C diluted to 5 nM in assay buffer (25 mM Hepes pH 7.5, 50 mM NaCl, 10 mM MgCl2 and 0.01% Brij-35) was added to the plate and pre-incubated with inhibitor for 2 hours at ambient temperature. Appropriate controls (enzyme with no inhibitor or with a G12C inhibitor (AMG-510)) were included on the plate. The exchange was initiated by the addition of a 5 μL/well volume containing 1 mM GppNHp and 300 nM SOS1 in assay buffer. The 10 μL/well reaction concentration of the bodipy-loaded KRAS G12C, GppNHp, and SOS1 were 2.5 nM, 500 uM, and 150 nM, respectively. The reaction plates were incubated at ambient temperature for 2 hours, a time estimated for complete GDP-GTP exchange in the absence of inhibitor. For the KRAS G12D and G12V mutants, similar guanine nucleotide exchange assays were used with 2.5 nM as final concentration for the bodipy loaded KRAS proteins and with 4 hours and 3 hours incubation after adding GppNHp-SOS1 mixture for G12D and G12V respectively. A cyclic peptide described to selectively bind G12D mutant (Sakamoto et al., BBRC 484.3 (2017), 605-611) or internal compounds with confirmed binding were used as positive controls in the assay plates. Fluorescence intensities were measured on a PheraStar plate reader instrument (BMG Labtech) with excitation at 485 nm and emission at 520 nm.
(§2) Either GraphPad prism or XLfit was used to analyze the data. The IC50 values were derived by fitting the data to a four parameter logistic equation producing a sigmoidal dose-response curve with a variable Hill coefficient. Prism equation: Y=Bottom+(Top−Bottom)/(1+10^((Log IC50−X)*Hill slope)); XLfit equation: Y=(A+((B−A)/(1+((X/C)^D)))) where X is the logarithm of inhibitor concentration and Y is the response.

For assay [2], the target named is KRAS G12V (Homo sapiens, UniProt P01116, G12V). In words: KRAS G12V GDP-GTP exchange assay (bodipy-GDP for GppNHp, with SOS1). Type of assay: biochemical. As to conditions: 2.5 nM bodipy loaded KRAS G12V, 3 hours after GppNHp-SOS1; read-out: G12V_exchange (KRAS_G12V exchange assay IC50). The procedure: as §1, §2
Chain of KRAS G12V (P01116 1-188 isoform P01116-2 G12V): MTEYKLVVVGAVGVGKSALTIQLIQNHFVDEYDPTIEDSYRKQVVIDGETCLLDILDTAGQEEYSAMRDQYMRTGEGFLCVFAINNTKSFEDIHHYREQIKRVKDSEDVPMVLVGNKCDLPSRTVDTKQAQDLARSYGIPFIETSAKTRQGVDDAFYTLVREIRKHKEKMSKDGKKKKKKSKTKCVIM

Chain of KRAS G12D (P01116 1-188 isoform P01116-2 G12D): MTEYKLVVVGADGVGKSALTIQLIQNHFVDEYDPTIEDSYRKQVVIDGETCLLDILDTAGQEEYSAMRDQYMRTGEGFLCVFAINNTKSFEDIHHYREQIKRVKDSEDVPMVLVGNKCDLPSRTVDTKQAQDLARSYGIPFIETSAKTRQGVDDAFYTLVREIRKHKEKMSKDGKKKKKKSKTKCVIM

Turning to `CN1CCC[C@H]1COc1nc2c(F)c(-c3cc(O)cc4ccccc34)c(CCC#N)cc2c2c1c(CO)cn2C1C2CNC1C2` (stereo partly drawn) [Example 46, 3-(1-(2-Azabicyclo[2.1.1]hexan-5-yl)-6-fluoro-3-(hydroxymethyl)-7-(3-hydroxynaphthalen-1-yl)-4-(((S)-1-methylpyrrolidin-2-yl)methoxy)-1H-pyrrolo[3,2-c]quinolin-8-yl)propanenitrile], the IC50 (as a rule, the concentration needed to halve the response being measured) in assay [1] is at most 100 nM; in assay [2], 100 to 1000 nM.

With `CCOc1nc2c(F)c(-c3cc(O)cc4ccccc34)c(CCC#N)cc2c2c1cc(CCC(=O)N(C)C)n2[C@H]1[C@H]2CN[C@@H]1C2` [Example 48, 3-(1-((1R,4R,5S)-2-azabicyclo[2.1.1]hexan-5-yl)-8-(2-cyanoethyl)-4-ethoxy-6-fluoro-7-(3-hydroxynaphthalen-1-yl)-1H-pyrrolo[3,2-c]quinolin-2-yl)-N,N-dimethylpropanamide], the IC50 in assay [1] and in assay [2] was at most 100 nM in each case.

Turning to `COC(=O)CCc1c(N2CC(N(C)C)C2)c2c(OC)nc3c(F)c(-c4cc(O)cc5ccccc45)c(CCC#N)cc3c2n1[C@H]1[C@H]2CN[C@@H]1C2` [Example 49, methyl 3-(1-((1R,4R,5S)-2-azabicyclo[2.1.1]hexan-5-yl)-8-(2-cyanoethyl)-3-(3-(dimethylamino)azetidin-1-yl)-6-fluoro-7-(3-hydroxynaphthalen-1-yl)-4-methoxy-1H-pyrrolo[3,2-c]quinolin-2-yl)propanoate], the IC50 in assay [1] and in assay [2] was 100 to 1000 nM throughout.

For `CN1CCC[C@H]1COc1nc2c(F)c(-c3cccc4ccc(F)cc34)c(CCC#N)cc2c2c1cc(CCC(=O)N1CCC1)n2C1C2CNC1C2` (stereo partly drawn) [Example 50, 3-(2-(3-(azetidin-1-yl)-3-oxopropyl)-1-(2-azabicyclo[2.1.1]hexan-5-yl)-6-fluoro-7-(7-fluoronaphthalen-1-yl)-4-(((S)-1-methylpyrrolidin-2-yl)methoxy)-1H-pyrrolo[3,2-c]quinolin-8-yl)propanenitrile], the IC50 in assay [1] and in assay [2] was at most 100 nM throughout.

Source of the values: patent US20210355121A1, “FUSED TRICYCLIC KRAS INHIBITORS” (Incyte Corporation, priority 2020, published 2021).
